From patent publication US11814376B2, “Hepatitis b core protein modulators” (Assembly Biosciences, Inc., priority 2015, dated 2023)

Columns and labels:
AD38 cells = assay: Viability of AD38 cells (Promega CellTiter-Glo); assay type: cell-based; settings: 10 μM compound, 6 days, CellTiter-Glo luminescence normalized to DMSO control (100%)
Method in brief: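 After 6 days of compound exposure at 37° C (compound added as 10× solution in 10% DMSO; 50,000 cells/well, collagen-coated), medium was replaced with tetracycline-free DMEM/F12, 2% FBS, 1% DMSO. CellTiter-Glo luminescence was then recorded and normalized to DMSO-treated wells as 100% viability.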

[1] = test system: HBV viral load in AD38 cells; assay: Viral load production in AD38 cells, quantitative PCR of the core sequence in supernatant; assay type: cell-based; settings: Hepatitis B virus, 144 h, 10 μM compound, 6 days at 37° C., supernatant qPCR, relative to DMSO control; read-out: AD38 Viral Load (%) (VL with cmpd/VL in DMSO control) at 10 μM

For `CN(C)CCCOc1ccc(-c2ncc(CNC(=O)c3ccc4c(c3)NC(=O)c3ccccc3S4(=O)=O)s2)cc1` [compound 1679], the “AD38 Viability Normalized Result (cmpd/DMSO %) at 10 μM” value (AD38 cells) was 94% and the activity at 10 µM [1] was 1.1%.
`Cl.O=C(NCc1cnc(-c2ccc(OCCC3CCCN3)cc2)s1)c1ccc2c(c1)NC(=O)c1ccccc1S2(=O)=O` (stereo not shown) [compound 1996, 11-oxo-N-((2-(4-(2-(pyrrolidin-2-yl)ethoxy)phenyl)thiazol-5-yl)methyl)-10, 11-dihydrodibenzo [b, f] [1, 4] thiazepine-8-carboxamide 5,5-dioxide hydrochloride] was tested, and the “AD38 Viability Normalized Result (cmpd/DMSO %) at 10 μM” value (AD38 cells) was 100% and the activity at 10 µM [1] was 17.4%.
In the case of `O=C(NCc1cnc(-c2cncs2)s1)c1ccc2c(c1)NC(=O)c1ccccc1S2(=O)=O` [compound 1956], the “AD38 Viability Normalized Result (cmpd/DMSO %) at 10 μM” value (AD38 cells) is reported as 88% and the activity at 10 µM [1] is reported as 2.3%.
With `COc1ccc(-c2ncc(CNC(=O)c3ccc4c(c3)NC(=O)c3ccccc3O4)s2)cc1` [compound 1619] the “AD38 Viability Normalized Result (cmpd/DMSO %) at 10 μM” value (AD38 cells) was 95% and the activity at 10 µM [1] was 1.3%.
For `O=C1Nc2c(cc(F)c(C(=O)NCc3cnc(-c4ccc(O)cc4)s3)c2F)Sc2ccccc21` [compound 1750], the “AD38 Viability Normalized Result (cmpd/DMSO %) at 10 μM” value (AD38 cells) was 107% and the activity at 10 µM [1] was 1.1%.
`CS(=O)(=O)Nc1ccc(-c2ncc(CNC(=O)c3ccc4c(c3)NC(=O)c3ccccc3O4)s2)cc1` [compound 1863] was tested, and the “AD38 Viability Normalized Result (cmpd/DMSO %) at 10 μM” value (AD38 cells) was 106% and the activity at 10 µM [1] was 9.4%.
`N#Cc1ccnc(-c2ncc(CNC(=O)c3ccc4c(c3)NC(=O)c3ccccc3S4(=O)=O)s2)c1` [compound 11051] was tested, and the “AD38 Viability Normalized Result (cmpd/DMSO %) at 10 μM” value (AD38 cells) was 103% and the activity at 10 µM [1] was 1.2%.
In the case of `O=C(NCc1cnc(-c2ccc(S(=O)(=O)CCCO)cc2)s1)c1ccc2c(c1)NC(=O)c1ccccc1S2(=O)=O` [11063-B, N-((2-(4-((3-hydroxypropyl)sulfonyl)phenyl)thiazol-5-yl)methyl)-11-oxo-10, 11-dihydrodibenzo [b, f] [1, 4] thiazepine-8-carboxamide 5,5-dioxide], the “AD38 Viability Normalized Result (cmpd/DMSO %) at 10 μM” value (AD38 cells) is reported as 95% and the activity at 10 µM [1] is reported as 5.4%.
For `O=C(NCc1cnc(-c2ccc(NC(=O)C3CC3)cc2)s1)c1ccc2c(c1)NC(=O)c1ccccc1S2(=O)=O` [compound 1931], the “AD38 Viability Normalized Result (cmpd/DMSO %) at 10 μM” value (AD38 cells) was 97% and the activity at 10 µM [1] was 8.5%.
With `NC(=O)c1cccc(-c2ncc(CNC(=O)c3ccc4c(c3)NC(=O)c3ccccc3S4(=O)=O)s2)c1` [1677-B, N-((2-(3-carbamoylphenyl)thiazol-5-yl)methyl)-11-oxo-10, 11-dihydrodibenzo [b, f] [1, 4] thiazepine-8-carboxamide 5,5-dioxide] the “AD38 Viability Normalized Result (cmpd/DMSO %) at 10 μM” value (AD38 cells) was 89% and the activity at 10 µM [1] was 2.4%.
For `CS(=O)(=O)c1ccc(-c2ncc(CNC(=O)c3ccc4c(c3)NC(=O)c3ccccc3O4)s2)cc1` [compound 1861], the “AD38 Viability Normalized Result (cmpd/DMSO %) at 10 μM” value (AD38 cells) was 94% and the activity at 10 µM [1] was 5.9%.
For `COc1cccc(Cc2ncc(CNC(=O)c3ccc4c(c3)NC(=O)c3ccccc3S4(=O)=O)s2)c1` [compound 1822, N-((2-(3-methoxybenzyl)thiazol-5-yl)methyl)-11-oxo-10, 11-dihydrodibenzo [b, f] [1, 4] thiazepine-8-carboxamide 5,5-dioxide], the “AD38 Viability Normalized Result (cmpd/DMSO %) at 10 μM” value (AD38 cells) was 89% and the activity at 10 µM [1] was 1.5%.
With `N#Cc1cccc(-c2ncc(CNC(=O)c3ccc4c(c3)NC(=O)c3ccccc3O4)s2)c1` [1714-A] the “AD38 Viability Normalized Result (cmpd/DMSO %) at 10 μM” value (AD38 cells) was 106% and the activity at 10 µM [1] was 49.2%.
`O=C(NCc1cnc(-c2ccc(OCCCN3CCC3)cc2)s1)c1ccc2c(c1)NC(=O)c1ccccc1S2(=O)=O` [compound 11105] was tested, and the “AD38 Viability Normalized Result (cmpd/DMSO %) at 10 μM” value (AD38 cells) was 95% and the activity at 10 µM [1] was 1.6%.
For `CN(C)CCSc1ncc(CNC(=O)c2ccc3c(c2)NC(=O)c2ccccc2O3)s1` [compound 1617], the “AD38 Viability Normalized Result (cmpd/DMSO %) at 10 μM” value (AD38 cells) was 101% and the activity at 10 µM [1] was 2.2%.
In the case of `N#CC1(COc2ccc(-c3ncc(CNC(=O)c4ccc5c(c4)NC(=O)c4ccccc4S5(=O)=O)s3)cc2)CCC1` [compound 11182], the “AD38 Viability Normalized Result (cmpd/DMSO %) at 10 μM” value (AD38 cells) is reported as 104% and the activity at 10 µM [1] is reported as 0.7%.
For `O=C(NCc1cnc(-c2cc(O)ccn2)s1)c1ccc2c(c1)NC(=O)c1ccccc1S2(=O)=O` [compound 1880, N-((2-(4-hydroxypyridin-2-yl)thiazol-5-yl)methyl)-11-oxo-10, 11-dihydrodibenzo [b, f] [1, 4] thiazepine-8-carboxamide 5,5-dioxide], the “AD38 Viability Normalized Result (cmpd/DMSO %) at 10 μM” value (AD38 cells) was 104% and the activity at 10 µM [1] was 6.7%.
With `O=C(NCc1cnc(-c2ccc(O)cc2Cl)s1)c1ccc2c(c1)NC(=O)c1ccccc1S2(=O)=O` [compound 1668] the “AD38 Viability Normalized Result (cmpd/DMSO %) at 10 μM” value (AD38 cells) was 106% and the activity at 10 µM [1] was 23.4%.
With `O=C(NCc1cnc(-c2ccccc2CCO)s1)c1ccc2c(c1)NC(=O)c1ccccc1S2(=O)=O` [compound 1839, N-((2-(2-(2-hydroxyethyl)phenyl)thiazol-5-yl)methyl)-11-oxo-10, 11-dihydrodibenzo [b, f] [1, 4] thiazepine-8-carboxamide 5,5-dioxide] the “AD38 Viability Normalized Result (cmpd/DMSO %) at 10 μM” value (AD38 cells) was 96% and the activity at 10 µM [1] was 6.6%.
`N#Cc1ncc(CNC(=O)c2ccc3c(c2)NC(=O)c2ccccc2S3(=O)=O)s1` [compound 1628] was tested, and the “AD38 Viability Normalized Result (cmpd/DMSO %) at 10 μM” value (AD38 cells) was 95% and the activity at 10 µM [1] was 21.8%.
For `Nc1ccc(-c2ncc(CNC(=O)c3ccc4c(c3)NC(=O)c3ccccc3O4)s2)cn1` [compound 1707, N-((2-(6-aminopyridin-3-yl)thiazol-5-yl)methyl)-11-oxo-10, 11-dihydrodibenzo [b, f] [1, 4] oxazepine-8-carboxamide], the “AD38 Viability Normalized Result (cmpd/DMSO %) at 10 μM” value (AD38 cells) was 88% and the activity at 10 µM [1] was 10.7%.
`O=C(NCc1cnc(-c2nccs2)s1)c1ccc2c(c1)NC(=O)c1ccccc1S2(=O)=O` [compound 1882] was tested, and the “AD38 Viability Normalized Result (cmpd/DMSO %) at 10 μM” value (AD38 cells) was 103% and the activity at 10 µM [1] was 1%.
In the case of `Nc1ncc(CNC(=O)c2ccc3c(c2)NC(=O)c2ccccc2S3(=O)=O)s1` [compound 1529], the “AD38 Viability Normalized Result (cmpd/DMSO %) at 10 μM” value (AD38 cells) is reported as 97% and the activity at 10 µM [1] is reported as 2%.
`O=C(O)CSc1ncc(CNC(=O)c2ccc3c(c2)NC(=O)c2ccccc2S3(=O)=O)s1` [compound 1589, 2-((5-((5,5-dioxido-11-oxo-10, 11-dihydrodibenzo [b, f] [1, 4]thiazepine-8-carboxamido)methyl)thiazol-2-yl)thio) acetic acid] was tested, and the “AD38 Viability Normalized Result (cmpd/DMSO %) at 10 μM” value (AD38 cells) was 98% and the activity at 10 µM [1] was 80%.
In the case of `O=C(O)COc1ccc(-c2ncc(CNC(=O)c3ccc4c(c3)NC(=O)c3ccccc3S4(=O)=O)s2)cc1` [compound 1581, 2-(4-(5-((5,5-dioxido-11-oxo-10, 11-dihydrodibenzo [b, f] [1, 4]thiazepine-8-carboxamido)methyl)thiazol-2-yl)phenoxy) acetic acid], the “AD38 Viability Normalized Result (cmpd/DMSO %) at 10 μM” value (AD38 cells) is reported as 93% and the activity at 10 µM [1] is reported as 34.4%.
For `O=C(NCc1cnc(N2CCCCC2)s1)c1ccc2c(c1)NC(=O)c1ccccc1S2(=O)=O` [compound 1905], the “AD38 Viability Normalized Result (cmpd/DMSO %) at 10 μM” value (AD38 cells) was 109% and the activity at 10 µM [1] was 0.3%.
`Cc1c(C(=O)NCc2cnc(-n3cc(F)cn3)s2)ccc2c1NC(=O)c1ccccc1S2(=O)=O` [compound 11148] was tested, and the “AD38 Viability Normalized Result (cmpd/DMSO %) at 10 μM” value (AD38 cells) was 98% and the activity at 10 µM [1] was 0.3%.
`CC1c2ccc(C(=O)NCc3cncs3)cc2NC(=O)c2ccccc21` (stereo not shown) [compound 1546] was tested, and the “AD38 Viability Normalized Result (cmpd/DMSO %) at 10 μM” value (AD38 cells) was 97% and the activity at 10 µM [1] was 2.2%.
`CC(C)(C)c1ncc(CNC(=O)c2ccc3c(c2)NC(=O)c2ccccc2S3)s1` [compound 1555] was tested, and the “AD38 Viability Normalized Result (cmpd/DMSO %) at 10 μM” value (AD38 cells) was 89% and the activity at 10 µM [1] was 1%.
`CC(C)(C)c1ncc(CNC(=O)c2ccc3c(c2)NC(=O)c2ccccc2S3(=O)=O)s1` [compound 1550] was tested, and the “AD38 Viability Normalized Result (cmpd/DMSO %) at 10 μM” value (AD38 cells) was 96% and the activity at 10 µM [1] was 4%.
With `CC(C)N(C)CC(O)COc1ccc(-c2ncc(CNC(=O)c3ccc4c(c3)NC(=O)c3ccccc3S4(=O)=O)s2)cc1` (stereo not shown) [compound 11087] the “AD38 Viability Normalized Result (cmpd/DMSO %) at 10 μM” value (AD38 cells) was 103% and the activity at 10 µM [1] was 7.1%.
With `Cc1c(C(=O)NCc2cnc(-n3cccn3)s2)ccc2c1NC(=O)c1ccccc1S2(=O)=O` [C38-02] the “AD38 Viability Normalized Result (cmpd/DMSO %) at 10 μM” value (AD38 cells) was 94% and the activity at 10 µM [1] was 0.5%.
`CCN(CC)CCCOc1ccc(-c2ncc(CNC(=O)c3ccc4c(c3)NC(=O)c3ccccc3S4(=O)=O)s2)cc1` [compound 11073] was tested, and the “AD38 Viability Normalized Result (cmpd/DMSO %) at 10 μM” value (AD38 cells) was 94% and the activity at 10 µM [1] was 2.2%.
With `CCOC(=O)/C=C/c1cnn(-c2ncc(CNC(=O)c3ccc4c(c3)NC(=O)c3ccccc3S4(=O)=O)s2)c1` [compound 11118] the “AD38 Viability Normalized Result (cmpd/DMSO %) at 10 μM” value (AD38 cells) was 95% and the activity at 10 µM [1] was 1.9%.
For `COc1ccc(-c2ncc(CNC(=O)c3ccc4c(c3)NC(=O)c3ccccc3S4(=O)=O)s2)cc1C` [1804-A, N-((2-(4-methoxy-3-methylphenyl)thiazol-5-yl)methyl)-11-oxo-10, 11-dihydrodibenzo [b, f] [1, 4] thiazepine-8-carboxamide 5,5-dioxide], the “AD38 Viability Normalized Result (cmpd/DMSO %) at 10 μM” value (AD38 cells) was 90% and the activity at 10 µM [1] was 6.6%.
For `O=C(NCc1cnc(-c2cnc(O)nc2)s1)c1ccc2c(c1)NC(=O)c1ccccc1O2` [compound 1709, N-((2-(2-hydroxypyrimidin-5-yl)thiazol-5-yl)methyl)-11-oxo-10, 11-dihydrodibenzo [b, f] [1, 4] oxazepine-8-carboxamide], the “AD38 Viability Normalized Result (cmpd/DMSO %) at 10 μM” value (AD38 cells) was 94% and the activity at 10 µM [1] was 51.1%.
With `Nc1ncc(-c2ncc(CNC(=O)c3ccc4c(c3)NC(=O)c3ccccc3O4)s2)cn1` [compound 1710] the “AD38 Viability Normalized Result (cmpd/DMSO %) at 10 μM” value (AD38 cells) was 96% and the activity at 10 µM [1] was 39.9%.
`O=C(O)COc1ccc(-c2ncc(CNC(=O)c3ccc4c(c3)NC(=O)c3ccccc3O4)s2)cc1` [compound 1620, 2-(4-(5-((11-oxo-10, 11-dihydrodibenzo [b, f] [1, 4]oxazepine-8-carboxamido)methyl)thiazol-2-yl)phenoxy) acetic acid] was tested, and the “AD38 Viability Normalized Result (cmpd/DMSO %) at 10 μM” value (AD38 cells) was 103% and the activity at 10 µM [1] was 41.9%.
